Assay results published in US8273768B2, “Iso CA-4 and analogues thereof as potent cytotoxic agents inhibiting tubuline polymerization” (Centre National de la Recherche Scientifique (CNRS), priority 2007, dated 2012).

Columns and labels:
[1] = tested on: A549; test: Study of cytotoxicity (CellTiter-Blue, 72 hours); format: cell-based; conditions: Homo sapiens, A549; 72 hours of incubation; read-out: IC50 for different cell lines: A549
Method: (§1) The biological activity of the compounds of the invention was studied in vitro on 7 human cancer cell lines with different tissue origins (HCT116: colorectal carcinoma; K562: chronic myeloid leukemia; B16-F10: melanoma; U87: glioblastoma; A549: lung cancer and MDA-MB 231 and MDA-MB 435: breast cancer). The cells selected for the study were incubated at 37° C. in the presence of one of the compounds added into the culture medium at different concentrations. The whole of the conducted experiments allowed determination of the toxicity level of the tested compound, its effect on the course of the cell cycle as well as its capacity of inducing cell death by apoptosis.
(§2) The cancer cell lines originate from the American Type Culture Collection (Rockville, Md., USA) and were grown according to the recommendations of the supplier.
(§3) The cells A549, U87, MDA-MB231, MDA-MB435 and B16F10 were grown in a culture medium “Dulbecco minimal essential medium” (DMEM) containing 4.5 g/L of glucose and supplemented with 10% fetal calf serum and 1% glutamine. The K562 and HCT116 were grown in an RPMI 1640 medium containing 10% fetal calf serum and 1% glutamine. All the cell lines were maintained in the culture at 37° C. in a humid atmosphere containing 5% of CO2. Cell viability was evaluated by using the reagent “CellTiter-Blue™” (Promega, Wis., USA) while observing the instructions of the manufacturer. The cells were sown in 96-well culture plates with 5000 cells per well in 50 μL of culture medium. After 24 hours of culture, the compounds of general formula (I) dissolved in DMSO were individually added into each of the wells in an amount of 50 μl per well. All the compounds were tested in triplicate for each defined concentration and each experiment was repeated three times. After 72 hours of incubation, 20 μL of resazurin were added in each well. After 2 hours of incubation, the emitted fluorescence was measured at 590 nm after excitation at 560 nm by means of a fluorescence reader of the Victor type (Perkin-Elmer, USA).
(§4) The concentration of each of the compounds which induces the death of 50% of the cells (IC50) was determined after 72 hours of incubation. Certain compounds according to the invention have an IC50 of the order of one nanomolar concentration, therefore equivalent to CA-4 taken as a reference.

[2] = tested on: MDA-MB 435; test: Study of cytotoxicity (CellTiter-Blue, 72 hours); format: cell-based; conditions: Homo sapiens, MDA-MB-435; 72 hours of incubation; read-out: IC50 for different cell lines: M435
Method: as §1, §2, §3, §4

[3] = tested on: U87; test: Study of cytotoxicity (CellTiter-Blue, 72 hours); format: cell-based; conditions: Homo sapiens, U-87 MG; 72 hours of incubation; read-out: IC50 for different cell lines: U87
Method: as §1, §2, §3, §4

[4] = tested on: K562 cells; test: Study of the cell cycle (flow cytometry); format: cell-based, human; conditions: K562, 24 hours, 5 nM
Method: (§5) The K562 and MDA-MB231 cells are sown in 6-well culture plates with 300,000 cells per well in their respective media as described above. After 24 hours of culture, the compound (I-1) was added in each of the wells at different concentrations. After 24 hours of incubation, the cells are collected individually in 15 mL tubes and then centrifuged. The cells are then washed twice in cold PBS and then re-suspended in 1 mL of PBS, fixed by adding 2 mL of cold absolute ethanol and placed at 4° C. for 1 hour. After centrifugation, the cells are washed twice in PBS and then the cell pellet is taken up in 100 μL of Triton X100 at 1%. After 30 minutes of incubation at room temperature, 50 μL of RNase A boiled beforehand (1 mg/mL) and 500 μL of propidium iodide (50 μg/mL) are added into each tube and incubated in the dark at room temperature for 30 minutes. The distribution of the number of cells in each of the phases of the cell cycle is then determined by flow cytometry with a cytometer of the FC500 type (Beckman-Coulter, France).
(§6) This effect is significant after 24 hours of exposure of the cells to the compound (I-1) used at a concentration of 5 nM (FIG. 1).

[5] = tested on: MDA-MB231 cells; test: Study of the cell cycle (flow cytometry); format: cell-based, human; conditions: MDA-MB231, 24 hours, 5 nM
Method: as §5, §6

[6] = Cytotoxicity on human endothelial cells; format: cell-based; conditions: human; EAhy926, measured after 72 hours; read-out: IC50, cytotoxic activity on EAhy926 (FIG. 4 legend)
Method: (§7) Cytotoxicity of compound (I-1) towards human endothelial cells (EAhy926) was evaluated after 1 hour, 3 hours and 6 hours of treatment. The number of living cells was either counted immediately at the end of the treatment (FIG. 3) or 72 hours after stopping the treatment (FIG. 4). It is observed that when the endothelial cells are treated for 72 hours with the compound (I-1), the IC50 is 2 nM.
(§8) The EAhy926 cells (immortalized HUVEC macrovascular endothelial cells) were cultivated in a culture medium “Dulbecco minimal essential medium” (DMEM) containing 4.5 g/L of glucose and supplemented with 10% fetal calf serum, 1% glutamine and a supplement of HAT (100 μM of hypoxanthine, 0.4 μM of aminopterin and 16 μM of thymidine, Invitrogen; Cergy-Pontoise, France). The cells were maintained in the culture at 37° C. in a humid atmosphere containing 5% CO2.
(§9) The cells were sown in 96-well culture plates in an amount of 3,000 cells per well in 50 μL of culture medium. […] At the end of the treatment, the number of cells was evaluated by using the reagent “CellTiter-Blue™” (Promega, Wis., USA) as described earlier. In parallel, after 1 hour, 3 hours or 6 hours of treatment with compound (I-1), the culture medium was removed and replaced with fresh medium for 72 hours and the number of living cells was then measured by using the reagent “CellTiter-Blue™”.

[7] = tested on: human endothelial cells (EAhy926); test: Cytotoxicity on human endothelial cells; format: cell-based; conditions: EAhy926, 1 hour, 3 hours or 6 hours of treatment, dose of 10 nM
Method: as §7, §8, §9

For C=C(c1ccc(OC)c(O)c1)c1cc(OC)c(OC)c(OC)c1 [(I-1)], the IC50 [1] was 8 nM, the IC50 [2] was 4.5 nM and the IC50 [3] was 8 nM. For the same compound, the “Effect on cell cycle” value [4] was “blocks cell division in the G2/M phase”, the “Effect on cell cycle” value [5] was “blocks cell division in the G2/M phase” and the IC50 at 72 h [6] was 2 nM. For the same compound, the “Cytotoxic activity on endothelial cells, short treatment” value [7] was “does not exhibit any cytotoxic activity”.
